Common to all, as to format: cell-based
Assay [1] has as its system Normal human fibroblasts (NHF). Description: Autophagic activity (MDC assay) in fibroblasts irradiated with blue light. The conditions noted are these: for Decrease of autophagic activity of irradiated fibroblast cells: irradiated at 453 nanometers. As for the experimental part: • 1)—Background Information The purpose of the study is to evaluate effects of one HCR extracts on autophagic activities of in fibroblast irradiated with 453 nanometers blue light. The cells (normal human fibroblasts or (NHF)) are cultured as primary monolayer. Product to be tested is applied during 24 hours before irradiation and the n the product to be tested is applied during 24 hours . then autophagic activity is measured (MDC). Lysosomes are cytoplasmic organelles that permit recycling of cellular materials that have exceeded their lifetime or are otherwise no longer useful. Their main function is to digest endogeneous or exogeneous substrates (so called autophagy) in eukaryotic cells. Lysosomes break down cellular waste products, fats, carbohydrates, proteins, and other macromolecules into small compounds, which are transferred back into the cytoplasm as new cell-building materials. Indeed, its lipid membrane contains many enzymes, proton pumps and transport proteins. Acid pH is regulated to allow optimum activities of acid hydrolases [1]-[2]. The fluorescent LysoTracker probe is structured to easily insert in living cells (a fluorophore is linked to a weak base that is only partially protonated at neutral pH). This characteristic permits to this labeling/staining to be very selective for acid organelles i.e. the lysosomes. Then, effects of radiations, like blue light for instance, at lysosomal level can be evaluated. Indeed, these radiations lead to free radical formation and affect the normal lysosomes network, its distribution in the cell space. This can be visualized with specific fluorescent probe LysoTracker. Autophagy is an eukaryotic cell process that allow cytoplasmic materials digestion in a vacuole that fuses with the lysosome. Indeed, lysosomes can directly incorporate cytoplasmic fragments (micro-autophagy), or via autophagic vacuoles, named autophagosomes (macro-autophagy, fusion of lysosome and autophagosome is so called autolysosome). Autophagy is an important mechanism that allows the cell to mobilize its energy stocks to defend and destroy its damaged organelles and then avoid serious effects. This process permits elimination and replacement of proteins and non-functional organelles, then to ensure homeostasis. It is an essential cytoprotective mechanism that allows adaptive cell responses to different kinds of stress or damages, as nutritive privation (starvation). So it is necessary to cell survival, but also to other fundamental physiologic phenomena as development, immunity, cell differentiation (including keratinocytes differentiation to corneocytes in the epidermis). It is involved in longevity control, aging, and development of pathologies as cancer or diabetes, infectious, metabolic, or neuro-degenerative diseases. […] Three concentrations of the extract HCR are tested (weight/volume % of dry extract or DE, as it is a liquid extract), each dose being evaluated as quintuplicate (5 wells). Irradiation dose of 453 nm blue light is 40 J/cm^2 (23 mW/cm^2 for 29 minutes). b)—Cells are seeded into 96-wells microplates (at a cell density of 10,000 cells per well, i.e. 30,000 NHF/cm2), 24 hours before treatment (incubation at 37° C./5% CO2). […] Fibroblasts are then treated again with the product (curative effect) for another 24 h (so the total application is 48 h). Cells are seeded in complete medium: Dulbecco's modified Eagle medium or DMEM (Gibco 41966), with antibiotics (Gibco 15140) and 10% of foetal bovine serum or FBS (Gibco 10270). Treatments are done in medium without FBS. Irradiation is done in PBS (phosphate buffer saline). All incubation/treatment times are at 37° C./5% CO2 (except irradiation, done at room temperature). At the end of treatment, wells are delicately rinsed (PBS) and 0.05 mM MDC probe is applied on cells (Sigma 30432) (37° C./5% CO2). After incubation during 30 minutes and washes, fluorescence is measured at 380 nm (excitation) and 525 nm (emission) wavelengths (Tecan Safire II machine). […]

In assay [2] the test system is mitochondria network of normal human fibroblasts (NHF). Description: Mitochondrial network protection (MitoTracker staining) in UVA-irradiated fibroblasts. As to conditions: 500 μM, positive control. As for the experimental part:
b)-Normal human fibroblasts (NHF) extracted after plastic surgery from mammary skin dermis of a donor, were cultured as primary monolayers; a)-Fibroblasts were seeded into Petri dishes (at a cell density of 150,000 cells per dish, with a diameter of 60 mm, i.e. 7,700 NHF/cm^2), in the same medium as previously described (complete medium, i.e. with FBS), one day before treatment (incubation at 37° C.; 5% CO2). Each test compound concentration/dose (in one dish each) was then applied for 24 hours (in medium without sera; incubation at 37° C./5% CO2). […] b)-To evaluate the mitochondria staining, cells were incubated with a fluorescent probe (Invitrogen MitoTrackerTM). Cells were observed and photos were taken with x40 objective (Olympus […] microscope and […] Microvision software), with or without appropriate fluorescent filter. The photos allowed the visualization of the mitochondria network or of the whole cells, respectively. • 4)-Evaluation of the Effects on the Metabolic Activity (ATP & NAD^+/NADH Titrations)

In assay [3] the test system is lysosomes network of normal human fibroblasts (NHF). Description: Lysosomal network protection (LysoTracker staining) in UVA-irradiated fibroblasts. As to conditions: 500 μM. Here is the method:
b)-Normal human fibroblasts (NHF) extracted after plastic surgery from mammary skin dermis of a donor, were cultured as primary monolayers; a)-Fibroblasts seeding was carried out as described in Example 2. b)-Cells were then incubated with a fluorescent probe (Invitrogen LysoTrackerTM). They were observed and photographed with x40 objective (Olympus CK40 microscope and […] Microvision software), with or without appropriate fluorescent filter. The photos allowed the visualization respectively of the lysosomes network or of the whole cells. c)-Fluorescence was quantified with Colombus software, by HCS Pharma (Rennes, France), as mean intensity (3 images for each condition). It is the mean value of intensity for each pixel of staining, contained in the cell area stained with LysoTracker (number of cells of each image is taken into account, as the final value is the mean of all cells values on the image). • 4)-Results

The subject of assay [4] is NAD+/NADH production by normal human fibroblasts (NHF). Description: NAD+/NADH titration in fibroblasts, UVA-irradiated or not. The conditions noted are these: Vitamin C 500 μM, UVA-irradiated. Here is the method: (§1) a)—In order to check the effects of UV and the tested product on cells metabolism, ATP and NAD^+/NADH titrations were performed. • (i)—Cells were seeded into 96-wells plates (at a cell density of 5,000 cells per well, i.e. 15,000 NHF/cm^2), in the same medium as previously described, one day before treatment. Then the treatment and irradiation timing was the same: first application for twenty-four hours (in medium without sera), then UVA-irradiation or not (same dose) and finally a second treatment for another twenty-four hours. As formerly, from the beginning to the end of the experiment, cells were incubated at 37° C./5% CO2. […] Measured quantity of this product (absorbance) is proportional to total NAD (NAD^+ and NADH) in each sample. • (v)—The ATP assay kit is an ATP monitoring system based on firefly (Photinus pyralis) luciferase. Added luciferase and D-luciferin react with ATP in samples to produce light, which measure (luminescence) is proportional to the ATP concentration. • b)—Raw data of both ATP and NAD^+/NADH titrations, i.e. luminescence units (RLU) or OD measurements obtained for respective standards, were plotted on graphics to determine standard curves. Then, the concentrations of ATP or NAD^+/NADH measured in the samples were determined. Quantitative values of each condition were averaged. […]

The test system of assay [5] is ATP production by normal human fibroblasts (NHF). Description: ATP titration in fibroblasts, UVA-irradiated or not. As to conditions: 500 μM. Here is the method:
as §1

Assay [6] has as its system normal human keratinocytes. As to the kind of experiment: ROS detection with H2DCFDA probe in normal human keratinocytes. As to conditions: 20 minutes. From the text: • 1)—Background Information The aim of the present evaluation was to evaluate the antioxidant and antipollution effects of the extract HCR, against oxidative stress in normal human cultured keratinocytes extracted from abdominal plastic surgery (donor), using the H2DCFDA probe. […] It is cell-permeant and stable. When it penetrates the cell, acetate groups are cleaved by intracellular esterases. The resulting product is the dichlorodihydrofluorescein (or H2DCF), non-fluorescent. […] The probe oxidation is not specific of one type of ROS. The fluorescence is detected at wavelengths of 490 nm (excitation) and 525 nm (emission). […] A XTT assay was previously performed, to check the cells viability, in order to determine the concentrations to be tested, as described in Example 2. • 2)—Evaluation of Antioxidant Effect (H2DCFDA Probe) Normal human keratinocytes were seeded in 96-well microplates and are then treated with the test compound to be tested for 24 hours, before adding the fluorescent probe for detection of ROS and stimulating or not by the pollutant or hydrogen peroxide. This test is based on the use of a detection system, a probe, which is degraded and fluoresces on contact with ROS. […] After incubation, fluorescence was read at 490 nm (excitation) and 525 nm (emission) wavelengths (Tecan Safire II reader). Data are expressed as RFU (fluorescence units). […]

Molecules are shown by their SMILES.

With `CC(=O)Oc1c(C)c(C)c2c(c1C)CCC(C)(CCC[C@H](C)CCC[C@H](C)CCCC(C)C)O2` (stereo partly drawn) [vitamin E, α-tocopherol acetate], the “RFU (means), MDC autophagic activity” value in assay [1] (200 μMoles, irradiated (453 nanometers) NHF) is recorded as 86 ^(*^) RFU; in assay [1] (200 μMoles, non irradiated NHF) it was 76 ^(**^) RFU. Besides, the “Decrease of autophagic activity of irradiated fibroblast cells” value in assay [1] (vitamin E) was 22%.
With `O=C1O[C@H]([C@@H](O)CO)C(O)=C1O` [vitamin C, L-ascorbic acid], the “Protection of mitochondria network against UV (MitoTracker images)” value in assay [2] was “effects of UVA were less distinct”. In assay [3] (highly significant), the “LysoTracker fluorescence mean intensity” value is recorded as “higher”. Further, in assay [3] (positive control), the “Protection of lysosomes network against UV (LysoTracker images)” value is “diminished the effects of UVA”. Further, the “RFU (means), MDC autophagic activity” value in assay [1] (500 μMoles, irradiated (453 nanometers) NHF) is reported as 95 RFU; in assay [1] (500 μMoles, non irradiated NHF), 60 ^(***^) RFU. The “Decrease of autophagic activity of irradiated fibroblast cells” value in assay [1] (vitamin C) is listed as 14%. In assay [4], the “NAD+/NADH release by UV-irradiated cells” value is “did not show expected positive effect”. Moreover, the “ATP synthesis, change compared to irradiated control” value in assay [5] is “+61%”.
`c1ccc2c(c1)cc1ccc3cccc4ccc2c1c34` [BaP, benzo(a)pyrene]: the “Stimulation of ROS production comparatively to non-stimulated acetone solvent control” value in assay [6] (BaP 36 μM) is reported as “+141%”.
Regarding `OO` [hydrogen peroxide], the “Stimulation of ROS production comparatively to unstimulated control” value in assay [6] (hydrogen peroxide 1 mM) was “+808%”.
